Some results are limits rather than exact numbers.

The values that follow come from patent US9750253B2, “Pesticidally active substituted pyridyl carboxamides” (Syngenta Participations AG, priority 2013, dated 2017).

Common to all, as to assay type: in vivo
Data set [1] has as its system Myzus persicae (Green Peach Aphid). The data set can be described thus: whole plant or invertebrate. The settings on record: foliar, 144 h, sunflower leaf discs sprayed, 6 days incubation. How it is done: Example B1: Activity Against Myzus persicae (Green Peach Aphid) (Mixed Population, Feeding/Residual Contact Activity, Preventive)
Sunflower leaf discs were placed on agar in a 24-well microtiter plate and sprayed with test solutions. After drying, the leaf discs were infested with an aphid population of mixed ages. After an incubation period of 6 days, samples were checked for mortality and special effects (e.g. phytotoxicity).

Data set [2] has the same test system. The data set can be described thus: whole plant or invertebrate. The settings on record: 144 h, pea seedlings, roots in test solution, 6 days after introduction. An excerpt: Example B2: Activity Against Myzus persicae (Green Peach Aphid) (Mixed Population, Systemic/Feeding Activity, Curative)
Pea seedlings, infested with an aphid population of mixed ages, were placed with the roots directly in the test solutions. 6 days after introduction, samples were checked for mortality and special effects on the plant.

Data set [3] has as its system Bemisia tabaci. Description: whole plant or invertebrate. To be noted: foliar, 168 h, cotton leaf discs sprayed, adult white flies, 7 DAT. The protocol: Example B3: Activity Against Bemisia tabaci, (Adults on Cotton, Contact, Preventative)
Cotton leaf discs are placed on agar in a 24-well microtiter plate and sprayed with test solutions. After drying, the leaf discs are infested with adult white flies. After an incubation period of 7 DAT, samples are checked for mortality and special effects (e.g. phytotoxicity).

For data set [4], the system named is Rhopalosiphum padi (Bird Cherry Oat Aphid). Description: Activity against Rhopalosiphum padi, barley, seed treatment, mixed population, systemic/feeding activity, preventive. How it is done: Example B5: Activity Against Rhopalosiphum padi (Bird Cherry Oat Aphid, Barley) (Seed Treatment) Mixed Population, Systemic/Feeding Activity, Preventive
The barley seeds were coated with the active ingredients as described in the formulation example F9 above.
A treated barley seed was sown in a 350 ml pot filled with soil. Two weeks after sowing the barley seedling was infested with an aphid population of mixed stages. After an incubation period of seven days the grade of efficacy was estimated and expressed in percentage.
Activity against Rhopalosiphum padi (Bird Cherry Oat Aphid, barley) (seed treatment) mixed population, systemic/feeding activity, preventive: […]

What is called mortality is the percentage killed. A higher mortality goes with fewer survivors. `CCc1cccnc1-n1ncc(C(=O)N(C)c2cccnc2)c1C` [Compound 1.025, 1-(3-ethyl-2-pyridyl)-N,5-dimethyl-N-(3-pyridyl)pyrazole-4-carboxamide] registered a mortality at 200 ppm in data set [1] of at least 80%.
With `Cc1cc(Br)cnc1-n1ncc(C(=O)N(C)c2cccnc2)c1C` [Compound 1.003, 1-(5-bromo-3-methyl-2-pyridyl)-N,5-dimethyl-N-(3-pyridyl)pyrazole-4-carboxamide], in data set [1], the mortality at 200 ppm was at least 80%.
Compound `Cc1cc(C#N)cnc1-n1ncc(C(=O)N(C)c2cccnc2)c1C` [Compound 1.004, 1-(5-cyano-3-methyl-2-pyridyl)-N,5-dimethyl-N-(3-pyridyl)pyrazole-4-carboxamide] showed a mortality at 200 ppm in data set [1] of at least 80%. The compound also displayed a mortality at 24 ppm in data set [2] of over 80%.
As for `Cc1ccc(Cl)nc1-n1ncc(C(=O)N(C)c2ccnnc2)c1C` [Compound 1.230, 1-(6-chloro-3-methyl-2-pyridyl)-N,5-dimethyl-N-pyridazin-4-yl-pyrazole-4-carboxamide], the mortality at 200 ppm is at least 80% in data set [1] and over 80% in data set [3].
In the case of `Cc1cccnc1-n1ncc(C(=O)N(C)c2cccnc2)c1C` [Compound 1.001, 1-(3-methylpyridin-2-yl)-5-methyl-1H-pyrazole-4-carboxylic acid methyl-pyridin-3-yl-amide], the values for the mortality at 200 ppm in data set [1] and in data set [3] were at least 80% and over 80%, respectively. Moreover, the “Mortality (%)” value in data set [4] (0.01 mg ai/seed) is listed as 70%; in data set [4] (0.03 mg ai/seed), 85%; in data set [4] (0.1 mg ai/seed) it was 95%; in data set [4] (0.3 mg ai/seed) it was 99%; in data set [4] (1 mg ai/seed) it was 99%. Moreover, the mortality at 24 ppm in data set [2] was over 80%.
With `Cc1cccnc1-n1ncc(C(=O)N(C)c2ccc[n+]([O-])c2)c1C` [Compound 1.079, 1-(3-methylpyridin-2-yl)-5-methyl-1H-pyrazole-4-carboxylic acid methyl-pyridin-N-oxide-3-yl-amide], in data set [1], the mortality at 200 ppm is at least 80%. In addition, the mortality at 24 ppm in data set [2] was over 80%.
`Cc1c(C(=O)N(C)c2cccnc2)cnn1-c1ncccc1Cl` [Compound 877, reference compound]: the “Mortality (%)” value is on record as 0% in data set [4] (0.01 mg ai/seed); 0% in data set [4] (0.03 mg ai/seed); 42% in data set [4] (0.1 mg ai/seed); 63% in data set [4] (0.3 mg ai/seed); 84% in data set [4] (1 mg ai/seed).
